Patent US12612410B2 (CHILDREN'S HOSPITAL MEDICAL CENTER, priority 2020, dated 2026)

Target: T1, FLT3 ITD, F691L (Homo sapiens, UniProt P36888, F691L, form not given)
T1 construct: fused on or other part: DNA tag for qPCR detection (T7 phage fusion or DNA-tagged protein from HEK-293 cells)
T1 sequence (P36888 1-993 F691L): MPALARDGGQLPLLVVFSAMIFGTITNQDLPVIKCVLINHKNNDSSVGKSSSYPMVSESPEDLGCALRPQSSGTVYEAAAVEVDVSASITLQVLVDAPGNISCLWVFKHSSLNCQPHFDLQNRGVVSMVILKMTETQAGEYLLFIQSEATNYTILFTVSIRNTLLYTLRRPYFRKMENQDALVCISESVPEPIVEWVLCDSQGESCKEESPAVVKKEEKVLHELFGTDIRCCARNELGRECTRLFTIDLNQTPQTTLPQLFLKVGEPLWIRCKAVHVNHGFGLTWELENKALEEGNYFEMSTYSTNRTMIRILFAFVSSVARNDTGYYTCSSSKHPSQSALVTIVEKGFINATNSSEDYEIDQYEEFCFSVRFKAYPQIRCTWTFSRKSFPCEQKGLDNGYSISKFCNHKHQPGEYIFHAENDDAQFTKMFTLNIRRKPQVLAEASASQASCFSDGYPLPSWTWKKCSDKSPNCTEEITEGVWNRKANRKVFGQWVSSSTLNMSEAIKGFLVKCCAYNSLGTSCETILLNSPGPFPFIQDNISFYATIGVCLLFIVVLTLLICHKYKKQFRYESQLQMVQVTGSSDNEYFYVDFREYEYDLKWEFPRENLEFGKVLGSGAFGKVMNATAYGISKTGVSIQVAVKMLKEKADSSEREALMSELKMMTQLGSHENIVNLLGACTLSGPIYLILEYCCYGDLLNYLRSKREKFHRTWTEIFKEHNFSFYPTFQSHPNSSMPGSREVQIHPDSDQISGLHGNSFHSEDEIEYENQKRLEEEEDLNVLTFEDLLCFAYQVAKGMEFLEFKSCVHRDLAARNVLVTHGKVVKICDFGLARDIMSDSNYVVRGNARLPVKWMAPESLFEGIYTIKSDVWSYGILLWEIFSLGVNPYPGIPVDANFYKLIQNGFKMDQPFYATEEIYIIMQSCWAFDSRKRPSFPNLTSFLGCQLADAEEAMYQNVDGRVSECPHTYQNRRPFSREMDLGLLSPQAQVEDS
Test: DiscoverX KINOMEscan competition binding, FLT3 ITD, F691L
Description: Kinase binding data were obtained for various exemplary compounds prepared according to Examples 1-24 using the DiscoverX KINOMVIEscan® active site-directed competition binding site-directed assay protocol described below. […] As a result, the data report thermodynamic interaction affinities (Kd values), rather than IC50 values that are dependent on ATP concentrations. The assay uses a DNA-tagged version of the protein kinase, and an immobilized ligand bound to a solid support. Compounds that directly or indirectly prevent kinase binding to the immobilized ligand reduce the amount of kinase captured on the solid support, which is detected using an ultra-sensitive qPCR method. Affinity constants reported from the assay have been reported to be independent of the immobilized ligand used that is coupled to the solid support (See supplemental information in Fabian, M. A. et. al., (2005) Nat. Biotechnol. 23, 329-336; Wodicka, L. M. et. al., (2010) Chem. Biol. 17, 1241-1249.)
Kinase-tagged T7 phage strains were prepared in an E. coli host derived from the BL21 strain. E. coli were grown to log-phase and infected with T7 phage and incubated with shaking at 32° C. until lysis. The lysates were centrifuged and filtered to remove cell debris. The remaining kinases were produced in HEK-293 cells and subsequently tagged with DNA for qPCR detection. Streptavidin-coated magnetic beads were treated with biotinylated small molecule ligands for 30 minutes at room temperature to generate affinity resins for kinase assays. The liganded beads were blocked with excess biotin and washed with blocking buffer (SeaBlock (Pierce), 1% BSA, 0.05% Tween 20, 1 mM DTT) to remove unbound ligand and to reduce non-specific binding. Binding reactions were assembled by combining kinases, liganded affinity beads, and test compounds in 1× binding buffer (20% SeaBlock, 0.17×PBS, 0.05% Tween 20, 6 mM DTT). Test compounds were prepared as 111× stocks in 100% DMSO. Kds were determined using an 11-point 3-fold compound dilution series with three DMSO control points. All compounds for Kd measurements are distributed by acoustic transfer (non-contact dispensing) in 100% DMSO. The compounds were then diluted directly into the assays such that the final concentration of DMSO was 0.9%. All reactions were performed in polypropylene 384-well plates. Each was a final volume of 0.02 mL. The assay plates were incubated at room temperature with shaking for 1 hour and the affinity beads were washed with wash buffer (1×PBS, 0.05% Tween 20). The beads were then re-suspended in elution buffer (1×PBS, 0.05% Tween 20, 0.5 μM nonbiotinylated affinity ligand) and incubated at room temperature with shaking for 30 minutes. The kinase concentration in the eluates was measured by qPCR.
Binding constants (Kds) were calculated with a standard dose-response curve using the Hill equation. The Hill Slope was set to −1. Curves were fitted using a non-linear least square fit with the Levenberg-Marquardt algorithm.

Compound | Kd [nM]
CC1(c2cn3c(-c4cccc(N[C@H]5CNC[C@@H]5F)n4)cnc3cn2)CC1 [Compound 1, N-((3S,4S)-4-fluoropyrrolidin-3-yl)-6-(6-(1-methylcyclopropyl)imidazo[1,2-a]pyrazin-3-yl)pyridin-2-amine] | 0.11
CC(C)(O)c1cn2c(-c3cccc(N[C@H]4CNCC[C@@H]4F)n3)cnc2cn1 [Compound 31, 2-(3-(6-(((3S,4S)-4-fluoropiperidin-3-yl)amino)pyridin-2-yl)imidazo[1,2-a]pyrazin-6-yl)propan-2-ol] | 0.49
FC(F)c1cn2c(-c3cccc(N[C@H]4CNC[C@@H]4F)n3)cnc2cn1 [Compound 16, 6-(6-(difluoromethyl)imidazo[1,2-a]pyrazin-3-yl)-N-((3S,4S)-4-fluoropyrrolidin-3-yl)pyridin-2-amine] | 0.32
F[C@H]1CNC[C@@H]1Nc1cccc(-c2cnc3cnc(C4CC4)cn23)n1 [Compound 50, 6-(6-cyclopropylimidazo[1,2-a]pyrazin-3-yl)-N-((3S,4S)-4-fluoropyrrolidin-3-yl)pyridin-2-amine] | 0.1
FC(F)c1cn2c(-c3cccc(N[C@H]4CNCC[C@@H]4F)n3)cnc2cn1 [Compound 25, 6-(6-(difluoromethyl)imidazo[1,2-a]pyrazin-3-yl)-N-((3S,4S)-4-fluoropiperidin-3-yl)pyridin-2-amine] | 0.074
CC1(c2cn3c(-c4cccc(N[C@H]5CNCC56CC6)n4)cnc3cn2)CC1 [Compound 5, (R)-N-(6-(6-(1-methylcyclopropyl)imidazo[1,2-a]pyrazin-3-yl)pyridin-2-yl)-5-azaspiro[2.4]heptan-7-amine] | 0.023
Cn1cc(-c2cn3c(-c4cccc(N[C@H]5CNC[C@@H]5F)n4)cnc3cn2)cn1 [Compound 52, N-((3S,4S)-4-fluoropyrrolidin-3-yl)-6-(6-(1-methyl-1H-pyrazol-4-yl)imidazo[1,2-a]pyrazin-3-yl)pyridin-2-amine] | 0.062

Continued, values first:

Kd [nM] | Compound
0.3 | FC(F)(F)C1(c2cn3c(-c4cccc(N[C@@H]5CCNC5)n4)cnc3cn2)CC1 [Compound 10, (R)-N-(pyrrolidin-3-yl)-6-(6-(1-(trifluoromethyl)cyclopropyl)imidazo[1,2-a]pyrazin-3-yl)pyridin-2-amine]
0.75 | FC(F)(F)COc1cn2c(-c3cccc(N[C@@H]4CCNC4)n3)cnc2cn1 [Compound 38, (R)-N-(pyrrolidin-3-yl)-6-(6-(2,2,2-trifluoroethoxy)imidazo[1,2-a]pyrazin-3-yl)pyridin-2-amine]
0.071 | CC1(c2cn3c(-c4cccc(N[C@@H]5CCNC5)n4)cnc3cn2)CC1 [Compound 3, (R)-6-(6-(1-methylcyclopropyl)imidazo[1,2-a]pyrazin-3-yl)-N-(pyrrolidin-3-yl)pyridin-2-amine]
1.8 | CC(C)(O)c1cn2c(-c3cccc(N[C@@H]4CCCNC4)n3)cnc2cn1 [Compound 30, (R)-2-(3-(6-(piperidin-3-ylamino)pyridin-2-yl)imidazo[1,2-a]pyrazin-6-yl)propan-2-ol]
